Source: US9562035B2, “Benzamide derivative useful as FASN inhibitors for the treatment of cancer” (Janssen Pharmaceutica NV, priority 2013, dated 2017)

Tests used:
[1] = biological target: T1, hFASN enzyme (full length) (Homo sapiens, UniProt P49327); test: Fatty Acid Synthase (FASN) Inhibition Scintillation Proximity Assay; assay type: biochemical; details: for IC50: mean where tested more than once, ~ = standard error of pIC50 larger than 0.5; for inhibition at 10 µM: read-out: FASN % Effect @1E−05M
T1 construct: 10 μL hFASN enzyme (full length, 300 ng, purified in house); made in house
T1 sequence (P49327 whole entry): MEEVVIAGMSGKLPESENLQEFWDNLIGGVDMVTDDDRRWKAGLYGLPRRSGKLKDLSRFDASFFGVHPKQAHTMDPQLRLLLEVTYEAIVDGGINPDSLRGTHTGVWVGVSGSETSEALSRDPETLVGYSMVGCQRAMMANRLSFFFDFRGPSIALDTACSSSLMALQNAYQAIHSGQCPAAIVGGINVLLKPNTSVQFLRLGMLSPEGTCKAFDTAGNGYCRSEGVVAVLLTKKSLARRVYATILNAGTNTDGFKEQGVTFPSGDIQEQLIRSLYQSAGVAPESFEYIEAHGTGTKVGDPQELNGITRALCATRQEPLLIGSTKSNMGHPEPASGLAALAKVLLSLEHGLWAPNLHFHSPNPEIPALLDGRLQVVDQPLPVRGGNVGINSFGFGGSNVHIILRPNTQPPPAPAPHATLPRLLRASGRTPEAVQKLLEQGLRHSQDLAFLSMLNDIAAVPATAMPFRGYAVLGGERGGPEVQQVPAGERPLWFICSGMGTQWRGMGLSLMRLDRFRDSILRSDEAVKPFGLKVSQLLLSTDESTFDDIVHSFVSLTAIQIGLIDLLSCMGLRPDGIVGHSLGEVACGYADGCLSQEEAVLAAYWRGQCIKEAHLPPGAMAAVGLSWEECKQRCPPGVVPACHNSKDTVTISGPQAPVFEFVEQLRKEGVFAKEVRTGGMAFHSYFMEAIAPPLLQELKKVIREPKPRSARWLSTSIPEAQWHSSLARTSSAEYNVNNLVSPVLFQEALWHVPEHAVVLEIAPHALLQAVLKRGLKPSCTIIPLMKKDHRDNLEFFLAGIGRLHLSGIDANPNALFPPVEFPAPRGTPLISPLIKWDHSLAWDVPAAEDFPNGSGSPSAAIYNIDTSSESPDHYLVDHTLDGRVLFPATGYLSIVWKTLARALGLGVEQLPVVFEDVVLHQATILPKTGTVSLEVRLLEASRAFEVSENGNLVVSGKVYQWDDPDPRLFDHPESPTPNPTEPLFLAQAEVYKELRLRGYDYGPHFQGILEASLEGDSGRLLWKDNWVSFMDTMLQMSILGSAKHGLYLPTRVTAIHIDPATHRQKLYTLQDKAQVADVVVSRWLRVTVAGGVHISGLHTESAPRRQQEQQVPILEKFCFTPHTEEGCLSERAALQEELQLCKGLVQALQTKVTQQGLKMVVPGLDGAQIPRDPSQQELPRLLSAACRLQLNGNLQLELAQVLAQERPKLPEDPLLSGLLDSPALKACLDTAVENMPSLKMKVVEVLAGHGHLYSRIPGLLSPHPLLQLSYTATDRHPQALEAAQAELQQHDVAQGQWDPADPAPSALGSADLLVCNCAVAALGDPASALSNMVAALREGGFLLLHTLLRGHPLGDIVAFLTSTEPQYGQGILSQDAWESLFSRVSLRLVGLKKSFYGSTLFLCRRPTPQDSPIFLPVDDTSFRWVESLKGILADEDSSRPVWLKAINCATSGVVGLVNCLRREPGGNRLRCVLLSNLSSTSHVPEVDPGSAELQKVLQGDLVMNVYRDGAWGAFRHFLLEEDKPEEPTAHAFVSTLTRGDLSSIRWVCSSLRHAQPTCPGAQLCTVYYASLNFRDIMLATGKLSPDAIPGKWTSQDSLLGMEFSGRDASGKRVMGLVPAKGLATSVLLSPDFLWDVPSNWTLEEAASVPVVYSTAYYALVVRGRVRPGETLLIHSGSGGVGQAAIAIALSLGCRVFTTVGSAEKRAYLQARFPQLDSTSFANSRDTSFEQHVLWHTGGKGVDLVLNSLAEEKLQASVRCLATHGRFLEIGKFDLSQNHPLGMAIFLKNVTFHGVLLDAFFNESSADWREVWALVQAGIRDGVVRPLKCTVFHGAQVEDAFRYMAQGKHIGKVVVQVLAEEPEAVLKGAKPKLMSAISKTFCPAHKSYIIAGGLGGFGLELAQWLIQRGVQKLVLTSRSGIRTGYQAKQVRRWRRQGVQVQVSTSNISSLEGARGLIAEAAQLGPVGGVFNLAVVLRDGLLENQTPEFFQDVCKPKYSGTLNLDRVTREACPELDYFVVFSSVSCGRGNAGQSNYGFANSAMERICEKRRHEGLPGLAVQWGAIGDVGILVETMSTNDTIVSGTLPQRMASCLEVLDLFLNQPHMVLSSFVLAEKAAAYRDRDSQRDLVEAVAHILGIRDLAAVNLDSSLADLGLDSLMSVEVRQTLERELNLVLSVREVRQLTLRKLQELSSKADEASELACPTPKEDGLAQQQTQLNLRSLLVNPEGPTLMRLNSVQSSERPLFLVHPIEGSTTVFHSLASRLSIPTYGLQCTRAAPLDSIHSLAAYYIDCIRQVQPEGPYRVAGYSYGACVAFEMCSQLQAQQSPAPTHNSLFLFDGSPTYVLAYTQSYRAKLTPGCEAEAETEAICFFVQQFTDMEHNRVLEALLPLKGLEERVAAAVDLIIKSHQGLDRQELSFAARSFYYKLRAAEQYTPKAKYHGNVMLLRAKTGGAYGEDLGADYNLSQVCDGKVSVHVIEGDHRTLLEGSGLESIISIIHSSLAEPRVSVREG
Method in brief: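 Eight compound concentrations (0.01–30 μM) tested in pH 7.5 phosphate buffer with DTT; human full-length enzyme converted [3H]-acetyl-CoA plus malonyl-CoA, with NADPH, over 60 min at room temperature. Hydrophobic [3H]-palmitate detected by bead proximity scintillation imaging; control-normalised data fitted for IC50/pIC50.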

A2780 ovarian cells [2] = test: A2780 Ovarian Cell Proliferation Assay in Lipid Reduced Medium, without Palmitate; assay type: cell-based; details: Homo sapiens, A2780; lipid reduced medium, without palmitate, 96 h, MTT; read-out: Proliferation A2780 w/o Palmitate pIC50 (converted)
Method in brief: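 A2780 cells were seeded in 10% FCS medium and switched next day to 10% lipid-reduced serum without palmitate. Compounds at 0.01–30 μM were added with 0.2% DMSO, 0.2% fatty-acid-free BSA and 0.25% ethanol final. After 96 h, MTT absorbance at 544 nm was normalized to plate controls, and IC50/pIC50 came from a 4-parameter logistic fit.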

A2780 ovarian cells [3] = test: A2780 Ovarian Cell Proliferation Assay in Lipid Reduced Medium, with Palmitate (control); assay type: cell-based; details: Homo sapiens, A2780; lipid reduced medium, 25 μM palmitate, 96 h, MTT; read-out: Proliferation A2780 with Palmitate pIC50 (converted)
Method in brief: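 Read-out was MTT absorbance at 544 nm after 96 h at 37 °C. Cells grown overnight in RPMI1640/10% FCS were moved to 10% lipid-reduced serum with compound plus palmitate (final 25 μM, 0.2% fatty-acid-free BSA, 0.2% DMSO). IC50 came from least-squares curve fitting, expressed as −log(IC50).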

[4] = biological target: T2, FASN Keto-reductase Domain (Homo sapiens, UniProt P49327); test: Fatty Acid Synthase Keto-Reductase Domain (FASN KR) Inhibition; assay type: biochemical; details: mean where tested more than once; read-out: FASN K-R Domain pIC50 (converted)
T2 construct: 10 μL hFASN enzyme (full length, 300 ng, purified in house) and 360 μM NADPH; made in house
T2 sequence (P49327 whole entry, the tested form may be a part): as the sequence (P49327 whole entry) above
Method in brief: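 Keto-reductase activity followed as NADPH consumption (A340 drop between 0 and 20 min, room temperature) using in-house full-length hFASN, 360 μM NADPH and ethyl acetoacetate substrate (180 mM stock), pH 7.5 phosphate buffer.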

Row | IC50 [1] | inhibition at 10 µM [1] | IC50 (A2780 ovarian cells [2]) | IC50 (A2780 ovarian cells [3]) | IC50 [4] | Structure (SMILES)
1 | 0.316 µM | 104% | ~0.257 µM | ~1.86 µM | 1.23 µM | Cc1ccc(C(=O)N2CCC(c3ccc(-c4cnn(CCN(C)C)c4)cc3)CC2)cc1NC(=O)c1ccc(NC(C)C)nc1 [Compound 253, N-(5-(4-(4-(1-(2-(dimethylamino)ethyl)-1H-pyrazol-4-yl)phenyl)piperidine-1-carbonyl)-2-methylphenyl)-6-(isopropylamino)nicotinamide]
2 | 0.0427 µM | 103% | 0.0182 µM | ~10 µM | 0.0537 µM | Cc1ccc(C(=O)N2CCC(c3ccc(-c4cnn(C5CC5)c4)cc3)CC2)cc1NC(=O)c1ccc(NC(C)C)nc1 [Compound 254, N-(5-(4-(4-(1-cyclopropyl-1H-pyrazol-4-yl)phenyl)piperidine-1-carbonyl)-2-methylphenyl)-6-(isopropylamino)nicotinamide]
3 | 0.617 µM | 95% | 0.891 µM | > 10 µM | 2.04 µM | Cc1ccc(C(=O)N2CCC(c3ncc(-c4cnn(C)c4)cn3)CC2)cc1NC(=O)c1ccc(Cl)nc1 [Compound 257, 6-chloro-N-(2-methyl-5-(4-(5-(1-methyl-1H-pyrazol-4-yl)pyrimidin-2-yl)piperidine-1-carbonyl)phenyl)nicotinamide]
4 | 0.245 µM | 99% | 0.389 µM | > 10 µM | 1.23 µM | Cc1ccc(C(=O)N2CCC(c3ncc(-c4cnn(C)c4)cn3)CC2)cc1NC(=O)c1ccc(NC(C)C)nc1 [Compound 258, 6-(isopropylamino)-N-(2-methyl-5-(4-(5-(1-methyl-1H-pyrazol-4-yl)pyrimidin-2-yl)piperidine-1-carbonyl)phenyl)nicotinamide]
5 | 0.0562 µM | 103% | ~0.0851 µM | > 10 µM | 0.355 µM | Cc1ccc(C(=O)N2CC(c3ccc(-c4cccnc4N)cc3)C2)cc1NC(=O)c1ccc(Cl)nc1 [Compound 259, N-(5-(3-(4-(2-aminopyridin-3-yl)phenyl)azetidine-1-carbonyl)-2-methylphenyl)-6-chloronicotinamide]
6 | 0.0251 µM | 112% | 0.0347 µM | > 10 µM | 0.102 µM | Cc1ccc(C(=O)N2CC(c3ccc(-c4cccnc4N)cc3)C2)cc1NC(=O)c1ccc(N2CCOCC2)nc1 [Compound 260, N-(5-(3-(4-(2-aminopyridin-3-yl)phenyl)azetidine-1-carbonyl)-2-methylphenyl)-6-morpholinonicotinamide]

The next lines start with the molecule.

Row | Structure (SMILES) | IC50 [1] | inhibition at 10 µM [1] | IC50 (A2780 ovarian cells [2]) | IC50 (A2780 ovarian cells [3]) | IC50 [4]
7 | Cc1ccc(C(=O)N2CCC(c3ccc(-c4cnn(C)c4)cc3)CC2)cc1NC(=O)[C@@H]1CCCN1C [Compound 238, (S)-1-methyl-N-(2-methyl-5-(4-(4-(1-methyl-1H-pyrazol-4-yl)phenyl)piperidine-1-carbonyl)phenyl)pyrrolidine-2-carboxamide] | 0.479 µM | 100% | 0.741 µM | > 10 µM | 1.02 µM
8 | Cc1ccc(C(=O)N2CCC(c3ccc(-c4cnn(C)c4)cc3)CC2)cc1NC(=O)[C@H]1CCCN1C [Compound 239, (R)-1-methyl-N-(2-methyl-5-(4-(4-(1-methyl-1H-pyrazol-4-yl)phenyl)piperidine-1-carbonyl)phenyl)pyrrolidine-2-carboxamide] | 0.123 µM | 110% | 0.195 µM | > 10 µM | 0.457 µM
9 | Cc1ccc(C(=O)N2CCC(c3ccc(-c4cnn(C)c4)cc3)CC2)cc1NC(=O)C1CN(C2CCC2)C1 [Compound 240, 1-cyclobutyl-N-(2-methyl-5-(4-(4-(1-methyl-1H-pyrazol-4-yl)phenyl)piperidine-1-carbonyl)phenyl)azetidine-3-carboxamide] | 0.0832 µM | 106% | 0.162 µM | > 10 µM | 0.407 µM
10 | Cc1ccc(C(=O)N2CCC(c3ccc(-c4cnn(C)c4)cc3)CC2)cc1NC(=O)C1CCN(C2CCC2)C1 (stereo not shown) [Compound 241, 1-cyclobutyl-N-(2-methyl-5-(4-(4-(1-methyl-1H-pyrazol-4-yl)phenyl)piperidine-1-carbonyl)phenyl)pyrrolidine-3-carboxamide] | 0.145 µM | 101% | 0.148 µM | > 10 µM | 0.468 µM
11 | CCCCN1CC(C(=O)Nc2cc(C(=O)N3CCC(c4ccc(-c5cnn(C)c5)cc4)CC3)ccc2C)C1 [Compound 242, 1-butyl-N-(2-methyl-5-(4-(4-(1-methyl-1H-pyrazol-4-yl)phenyl)piperidine-1-carbonyl)phenyl)azetidine-3-carboxamide] | 0.0724 µM | 105% | 0.0955 µM | > 10 µM | 0.158 µM
12 | CCCCCCN1CC(C(=O)Nc2cc(C(=O)N3CCC(c4ccc(-c5cnn(C)c5)cc4)CC3)ccc2C)C1 [Compound 243, 1-hexyl-N-(2-methyl-5-(4-(4-(1-methyl-1H-pyrazol-4-yl)phenyl)piperidine-1-carbonyl)phenyl)azetidine-3-carboxamide] | 0.129 µM | 105% | 0.24 µM | 7.08 µM | 0.186 µM
13 | Cc1ccc(C(=O)N2CCC(c3ccc(-c4cnn(C)c4)cc3)CC2)cc1NC(=O)c1nc(Br)cs1 [Compound 244, 4-bromo-N-(2-methyl-5-(4-(4-(1-methyl-1H-pyrazol-4-yl)phenyl)piperidine-1-carbonyl)phenyl)thiazole-2-carboxamide] | 0.0447 µM | 106% | 0.0955 µM | 8.32 µM | 0.191 µM
14 | Cc1ccc(C(=O)N2CCC(c3ccc(-c4cn(C)nc4C)cc3)CC2)cc1NC(=O)c1ccc(NC(C)C)nc1 [Compound 245, N-(5-(4-(4-(1,3-dimethyl-1H-pyrazol-4-yl)phenyl)piperidine-1-carbonyl)-2-methylphenyl)-6-(isopropylamino)nicotinamide] | 0.0339 µM | 108% | ~0.0316 µM | > 10 µM | 0.0759 µM
15 | Cc1ccc(C(=O)N2CCC(c3ccc(-c4cnn(C)c4C)cc3)CC2)cc1NC(=O)c1ccc(NC(C)C)nc1 [Compound 246, N-(5-(4-(4-(1,5-dimethyl-1H-pyrazol-4-yl)phenyl)piperidine-1-carbonyl)-2-methylphenyl)-6-(isopropylamino)nicotinamide] | 0.0537 µM | 110% | 0.112 µM | 8.32 µM | 0.245 µM
16 | Cc1ccc(C(=O)N2CCC(c3ccc(-c4cnn(C(C)C)c4)cc3)CC2)cc1NC(=O)c1ccc(NC(C)C)nc1 [Compound 247, N-(5-(4-(4-(1-isopropyl-1H-pyrazol-4-yl)phenyl)piperidine-1-carbonyl)-2-methylphenyl)-6-(isopropylamino)nicotinamide] | 0.0339 µM | 112% | 0.0389 µM | 6.17 µM | 0.0912 µM
17 | Cc1ccc(C(=O)N2CCC(c3ccc(-c4cnn(C5CCC5)c4)cc3)CC2)cc1NC(=O)c1ccc(NC(C)C)nc1 [Compound 248, N-(5-(4-(4-(1-cyclobutyl-1H-pyrazol-4-yl)phenyl)piperidine-1-carbonyl)-2-methylphenyl)-6-(isopropylamino)nicotinamide] | 0.0437 µM | 108% | 0.0355 µM | 3.55 µM | 0.0933 µM
18 | Cc1ccc(C(=O)N2CCC(c3ccc(-c4cnn(CC5CC5)c4)cc3)CC2)cc1NC(=O)c1ccc(NC(C)C)nc1 [Compound 249, N-(5-(4-(4-(1-(cyclopropylmethyl)-1H-pyrazol-4-yl)phenyl)piperidine-1-carbonyl)-2-methylphenyl)-6-(isopropylamino)nicotinamide] | 0.0537 µM | 109% | 0.0724 µM | 5.25 µM | 0.1 µM
19 | Cc1ccc(C(=O)N2CCC(c3ccc(-c4ccc(F)cc4)cc3)CC2)cc1NC(=O)c1ccc(NC(C)C)nc1 [Compound 250, N-(5-(4-(4′-fluoro-[1,1′-biphenyl]-4-yl)piperidine-1-carbonyl)-2-methylphenyl)-6-(isopropylamino)nicotinamide] | 0.229 µM | 65% | 0.49 µM | 1.62 µM | 0.209 µM
20 | Cc1ccc(C(=O)N2CCC(c3ccc(-c4ccco4)cc3)CC2)cc1NC(=O)c1ccc(NC(C)C)nc1 [Compound 252, N-(5-(4-(4-(furan-2-yl)phenyl)piperidine-1-carbonyl)-2-methylphenyl)-6-(isopropylamino)nicotinamide] | 0.166 µM | 106% | 0.347 µM | 1.45 µM | 0.437 µM
